Experimental findings from patent publication US9469584B2, “Method for producing butanol using extractive fermentation” (Butamax Advanced Biofuels LLC, priority 2013, dated 2016) are described below.

Structures can show the parent of a compound that is named as a salt. Where two headings read alike, the source gives them in different places.

A short description of series [1]: Density of the pure solvent. It is filed as physicochemical. The method, then:
Wt % of isobutanol in each layer was reported. The density of the pure solvent was also reported. […] Wt. iBuOH (mg) was calculated by wt % i-BuOH×0.5×density of pure solvent. For the aqueous solutions the density of both the pure water and salt solutions were assumed to be 1.0 g/ml. Kd was calculated both from concentration of i-BuOH in the organic/concentration of i-BuOH in the aqueous layer. It was calculated both from the w/w data and w/v data. The sum of the amounts of isobutanol found in both layers was calculated as a check on the data.

In series [2] the test system is ethanologen (Ethanol Red).

For `CCCCCCCC/C=C\CCCCCCCCO` [oleyl alcohol, reference compound], in series [1] (pure solvent), the density amounted to 0.849 g/mL.
Take `CCCCCCCCC(CO)CCCCCC` (stereo not drawn) [2-Hexyl-1-decanol (Isofol 16), 2-Hexyl-1-decanol]: the density in series [1] (pure solvent) is 0.836 g/mL.
Same read-out and setting: the figure for `CC(C)CCOCCC(C)C` [i-Amyl Ether] is 0.78 g/mL; for `CCCCC(CC)COC(=O)CCCCCCCCC(=O)OCC(CC)CCCC` (stereo not drawn) [bis(2-ethylhexyl)sebacate] it is 0.914 g/mL.
Turning to `CCCCCCCCOC(=O)c1ccccc1C(=O)OCCCCCCCC` [Dioctyl phthlate], the density in series [1] amounted to 0.985 g/mL.
`CCCCCl` [chlorobutane]: the density in series [1] worked out at 0.886 g/mL.
Take `CC1COC(=O)O1` (stereo not drawn) [propylene carbonate]: the density in series [1] (pure solvent) worked out at 1.2 g/mL.
The same measure, in the same setting: the figure for `CCCCCCOC(=O)c1ccccc1O` [hexyl salicylate] is 1.04 g/mL; for `CCCCCCCCCCCC(=O)OCCCC` [butyl dodecanoate] it is 0.855 g/mL; for `CCCCCCC(CO)CCCC` (stereo not drawn) [2-butyl-1-octanol] it is 0.833 g/mL.
Same read-out and setting: the figure for `CCCCC(CC)COC(=O)/C=C\C(=O)OCC(CC)CCCC` (stereo not drawn) [Bis(2-ethylhexyl) maleate] is 0.944 g/mL.
With `CCCCC(CC)COP(=O)(O)OCC(CC)CCCC` (stereo not drawn) [Bis(2-ethylhexyl) phosphate], the density in series [1] (pure solvent) stood at 0.965 g/mL. In series [2], the “Glucose (g/L) 5.00 hrs Run 1” value is reported as 20.3/20.6 g/L, the “Glucose (g/L) 5.00 hrs Run 2” value is on record as 20.3/20.6 g/L, the “Glucose (g/L) […] Run 1” value was 20.0/20.2 g/L and the “Glucose (g/L) […] Run 2” value was 20.0/20.2 g/L.
With `CCCCC(CC)COC(=O)CCCCC(=O)OCC(CC)CCCC` (stereo not drawn) [bis(2-ethylhexyl)adipate], the density in series [1] (pure solvent) stood at 0.925 g/mL. Further, in series [2] (Saccharomyces cerevisiae), the “Glucose (g/L) 5.50 hrs Run 1” value is 0.0/0.0 g/L, the “Glucose (g/L) 5.50 hrs Run 2” value was 0.0/0.0 g/L, the “Glucose (g/L) […] Run 1” value is on record as 0.0/0.0 g/L and the “Glucose (g/L) […] Run 2” value is 0.0/0.0 g/L.
As to `CC(CCO)CC(C)(C)C` (stereo not drawn) [3,5,5-trimethyl-1-hexanol], the density in series [1] (pure solvent) amounted to 0.824 g/mL.
With Xylene, the density in series [1] is 0.879 g/mL.
In turn, nonyl phenol yielded a density in series [1] of 0.937 g/mL. Moreover, in series [2], the “Glucose (g/L) 5.00 hrs Run 1” value is recorded as 20.3/20.3 g/L, the “Glucose (g/L) 5.00 hrs Run 2” value was 20.3/20.3 g/L, the “Glucose (g/L) […] Run 1” value is 20.6/20.0 g/L and the “Glucose (g/L) […] Run 2” value was 20.6/20.0 g/L.
`CCCCC(CC)CO` (stereo not drawn) [2-Ethyl-1-hexanol] gave a density in series [1] (pure solvent) of 0.833 g/mL.
Still for that read-out and setting: the figure for `CC(C)=CCCC(C)=CCCC(C)=CCO` [Farnesol] is 0.89 g/mL; for `CCCCCCOCCCCCC` [Hexyl Ether] it is 0.793 g/mL; for `CC(C)CCCC(C)CCO` (stereo not drawn) [3,7-dimethyl-1-octanol] it is 0.828 g/mL.
Turning to `CCCCCCCCOC(=O)c1ccc(C(=O)OCCCCCCCC)cc1` [dioctyl terephthalate], the density in series [1] (pure solvent) worked out at 0.986 g/mL.
